In patent US12187742B2 (XRAD Therapeutics, Inc., priority 2018, dated 2025):
Where a name gives a salt, the structure may show the parent alone.

Experiments:
DNA-PK = DNA-PK (Homo sapiens (Human), UniProt P78527); assay: DNA-PK Enzyme-Linked Immunosorbent Assay (phosphorylation of GST-p53 (1-101) peptide); assay type: biochemical; conditions: ELISA
In short: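 Inhibition measured by 450 nm absorbance after HRP/TMB detection of phospho-Ser15 on immobilized GST-p53 (1-101). The kinase reaction used 0.1 μg/mL DNA-PK and 20 μM ATP, 1 h at 25 °C. Ten 3-fold compound dilutions, top final concentration 100 nM.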

ATM = ATM (Homo sapiens (Human), UniProt Q13315); assay: ATM in Cell Western Assay (pKAP1 in etoposide-treated MCF-7 cells); assay type: cell-based
In short: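 After paraformaldehyde fixation and Triton X-100 permeabilization, immunostained plates were read by infrared scanning (ODYSSEY CLx). Compound was given as 10 doses, 3-fold dilutions from a 1 μM final top concentration.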

[1] = MCF-7 cells, etoposide 100 μM, 1 hr, pKAP1 readout
[2] = pKAP1 in etoposide-treated MCF-7 cells

Sequence of ATM (Q13315 whole entry): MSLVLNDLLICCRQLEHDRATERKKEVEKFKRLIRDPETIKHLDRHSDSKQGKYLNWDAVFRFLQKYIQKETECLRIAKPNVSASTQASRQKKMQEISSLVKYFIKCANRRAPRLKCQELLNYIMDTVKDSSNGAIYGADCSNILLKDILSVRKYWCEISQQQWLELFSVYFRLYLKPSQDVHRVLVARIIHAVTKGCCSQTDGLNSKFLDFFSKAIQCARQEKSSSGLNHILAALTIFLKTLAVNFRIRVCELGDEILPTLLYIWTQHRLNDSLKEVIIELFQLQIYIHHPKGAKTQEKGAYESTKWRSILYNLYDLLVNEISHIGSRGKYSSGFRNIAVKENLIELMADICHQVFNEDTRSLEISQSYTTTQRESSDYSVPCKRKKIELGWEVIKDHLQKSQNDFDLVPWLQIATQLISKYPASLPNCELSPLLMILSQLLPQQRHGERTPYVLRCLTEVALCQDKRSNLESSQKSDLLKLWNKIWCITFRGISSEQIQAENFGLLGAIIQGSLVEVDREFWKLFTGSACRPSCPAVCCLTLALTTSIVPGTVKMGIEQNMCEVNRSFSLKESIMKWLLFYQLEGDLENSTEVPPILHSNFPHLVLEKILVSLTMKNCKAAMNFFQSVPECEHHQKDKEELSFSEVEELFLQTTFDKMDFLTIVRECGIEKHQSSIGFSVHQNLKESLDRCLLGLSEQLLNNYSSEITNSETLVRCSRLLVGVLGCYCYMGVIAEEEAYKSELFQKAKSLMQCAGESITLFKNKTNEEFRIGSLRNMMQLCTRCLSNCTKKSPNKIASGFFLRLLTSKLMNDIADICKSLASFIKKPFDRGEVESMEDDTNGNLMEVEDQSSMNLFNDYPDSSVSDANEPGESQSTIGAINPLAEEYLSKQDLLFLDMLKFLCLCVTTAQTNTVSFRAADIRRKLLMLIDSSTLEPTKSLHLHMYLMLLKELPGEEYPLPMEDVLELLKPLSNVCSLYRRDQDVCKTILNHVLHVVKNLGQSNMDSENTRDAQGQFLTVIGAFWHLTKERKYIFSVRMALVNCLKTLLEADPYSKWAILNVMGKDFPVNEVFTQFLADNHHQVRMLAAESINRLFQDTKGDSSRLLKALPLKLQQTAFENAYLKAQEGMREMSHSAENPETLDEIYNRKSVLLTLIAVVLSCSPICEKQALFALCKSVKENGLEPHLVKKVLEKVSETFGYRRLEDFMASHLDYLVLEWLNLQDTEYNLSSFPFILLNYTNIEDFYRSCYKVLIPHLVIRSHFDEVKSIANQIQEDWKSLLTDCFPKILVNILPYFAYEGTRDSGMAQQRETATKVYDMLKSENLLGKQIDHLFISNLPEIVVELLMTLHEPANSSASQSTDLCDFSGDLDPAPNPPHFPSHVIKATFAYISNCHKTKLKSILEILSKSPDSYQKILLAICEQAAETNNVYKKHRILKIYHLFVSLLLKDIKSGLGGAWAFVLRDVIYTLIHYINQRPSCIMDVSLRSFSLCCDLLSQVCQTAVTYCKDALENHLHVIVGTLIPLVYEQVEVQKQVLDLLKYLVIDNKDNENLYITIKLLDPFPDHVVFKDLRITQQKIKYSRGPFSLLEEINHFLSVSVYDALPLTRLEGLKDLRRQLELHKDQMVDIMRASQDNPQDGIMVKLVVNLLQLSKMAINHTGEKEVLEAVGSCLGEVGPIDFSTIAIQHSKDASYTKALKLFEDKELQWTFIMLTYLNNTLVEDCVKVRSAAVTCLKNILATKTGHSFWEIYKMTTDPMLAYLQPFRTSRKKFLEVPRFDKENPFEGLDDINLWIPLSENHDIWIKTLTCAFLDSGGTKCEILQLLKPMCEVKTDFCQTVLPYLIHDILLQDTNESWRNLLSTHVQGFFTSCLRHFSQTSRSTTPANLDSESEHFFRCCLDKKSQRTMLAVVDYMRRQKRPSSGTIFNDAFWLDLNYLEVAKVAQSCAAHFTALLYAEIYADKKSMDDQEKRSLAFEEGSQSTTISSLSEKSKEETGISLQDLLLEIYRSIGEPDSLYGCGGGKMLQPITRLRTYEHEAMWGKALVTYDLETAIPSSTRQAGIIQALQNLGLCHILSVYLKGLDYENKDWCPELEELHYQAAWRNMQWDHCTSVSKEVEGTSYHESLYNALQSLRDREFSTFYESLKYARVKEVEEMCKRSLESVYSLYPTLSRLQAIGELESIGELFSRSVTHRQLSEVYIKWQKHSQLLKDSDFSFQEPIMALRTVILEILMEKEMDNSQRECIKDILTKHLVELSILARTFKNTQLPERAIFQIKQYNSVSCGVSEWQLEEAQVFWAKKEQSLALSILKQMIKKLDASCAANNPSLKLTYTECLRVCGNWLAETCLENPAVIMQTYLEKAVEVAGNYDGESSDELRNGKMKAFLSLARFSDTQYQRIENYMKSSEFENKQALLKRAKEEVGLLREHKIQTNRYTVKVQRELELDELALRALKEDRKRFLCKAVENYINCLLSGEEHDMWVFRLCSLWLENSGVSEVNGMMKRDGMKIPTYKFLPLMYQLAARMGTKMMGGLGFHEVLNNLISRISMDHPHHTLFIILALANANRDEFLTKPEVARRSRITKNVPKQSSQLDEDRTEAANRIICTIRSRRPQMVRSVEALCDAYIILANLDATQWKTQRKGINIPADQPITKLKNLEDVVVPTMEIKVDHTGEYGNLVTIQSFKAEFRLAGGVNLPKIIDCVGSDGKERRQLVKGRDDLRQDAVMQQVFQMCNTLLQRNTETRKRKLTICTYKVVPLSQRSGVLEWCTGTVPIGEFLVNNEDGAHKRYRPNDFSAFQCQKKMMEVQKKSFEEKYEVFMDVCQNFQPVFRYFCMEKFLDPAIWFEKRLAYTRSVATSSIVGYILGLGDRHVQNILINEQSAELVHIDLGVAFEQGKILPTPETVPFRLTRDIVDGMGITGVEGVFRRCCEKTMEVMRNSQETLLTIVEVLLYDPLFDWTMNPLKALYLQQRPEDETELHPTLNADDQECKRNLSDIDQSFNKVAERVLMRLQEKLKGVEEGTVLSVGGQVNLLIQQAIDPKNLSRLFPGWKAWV

Question: For `COc1ccc(S(=O)(=O)Nc2cc(-c3ccc4ncc5c(c4c3)C3(CCC3)C(=O)N5C)cnc2OCCCN(C)C)cn1` [Example 133, N-(2-(3-(Dimethylamino)propoxy)-5-(3′-methyl-2′-oxo-2′,3′-dihydrospiro[cyclobulane-l.1′-pyrrolo[2,3-c]quinolin]-8′-yl)pyridin-3-yl)-6-methoxypyridine-3-sulfonamide hydrochloride], which IC50 (DNA-PK; ATP 20 μM) is on record?
Answer: 0.5 to 1 nM

Question: What about the IC50 (ATM; [1]) of the same compound?
Answer: 1 to 100 nM

Question: `CN(C)CCCOc1ncc(-c2ccc3ncc4c(c3c2)C2(CC2)C(=O)N4C)cc1NS(=O)(=O)C1CC1` [Example 29, N-(2-(3-(Dimethylamino)propoxy)-5-(3′-methyl-2′-oxo-2′,3′-dibydrospiro [cyclopropane-1,1′-pyrrolo[2,3-c]quinolin]-8′-yl)pyridin-3-yl) cyclopropanesulfonamide] was tested. Which IC50 (DNA-PK; ATP 20 μM) did it give?
Answer: 1 to 100 nM

Question: And the IC50 (ATM; [1])?
Answer: 1 to 100 nM

Question: How did the IC50 (DNA-PK; ATP 20 μM) turn out when `CN1C(=O)C2(CC2)c2c1cnc1ccc(-c3cnc(OC4CC(N(C)C)C4)c(NS(=O)(=O)c4ccccc4)c3)cc21` (stereo not shown) [Example 102, N-(2-(3-(Dimethylamino)cyclobutoxy)-5-(3′-methyl-2′-oxo-2′,3′-dihydrospiro[cyclopropane-1,1′-pyrrolo[2,3-c]quinolin]-8′-yl)pyridin-3-yl)benzenesulfonamide] was run?
Answer: 1 to 100 nM

Question: And the IC50 (ATM; [1])?
Answer: 1 to 100 nM

Question: How did the IC50 (DNA-PK; ATP 20 μM) turn out when `Cc1ncc(-c2ccc3ncc4c(c3c2)C2(CC2)C(=O)N4C)cc1NS(=O)(=O)c1ccccc1` [Example 24, N-(2-Methyl-5-(3′-methyl-2′-oxo-2′,3′-dihydrospiro[cyclopropane-1,1′-pyrrolo[2,3-c]quinolin]-8′-yl)pyridin-3-yl)benzenesulfonamide] was run?
Answer: < 0.5 nM

Question: And the IC50 (ATM; [1])?
Answer: 1 to 100 nM

Question: With `Cc1ccc(S(=O)(=O)Nc2cc(-c3ccc4ncc5c(c4c3F)C3(CCC3)C(=O)N5C)cnc2OCCCN(C)C)cc1` [Example 204, N-(2-(3-(Dimethylamino)propoxy)-5-(9′-fluoro-3′-methyl-2′-oxo-2′,3′-dihydrospiro[cyclobutane-1,1′-pyrrolo[2,3-c]quinolin]-8′-yl)pyridin-3-yl)-4-methylbenzenesulfonamide] as the compound, how does the IC50 (DNA-PK; ATP 20 μM) read?
Answer: 0.5 to 1 nM

Question: And the IC50 (ATM; [1])?
Answer: 1 to 100 nM

Question: For `CN1C(=O)C2(CCC2)c2c1cnc1ccc(-c3cnc(N4CCC(N5CCCCC5)CC4)c(NS(=O)(=O)c4ccccc4F)c3)cc21` [Example 203], which IC50 (DNA-PK; ATP 20 μM) is on record?
Answer: 0.5 to 1 nM

Question: And the IC50 (ATM; [1])?
Answer: 1 to 100 nM

Question: With `CC(C)NCCOc1ncc(-c2cc3c(cc2F)ncc2c3[C@]3(C[C@@H](c4cccc(Cl)c4)C3)C(=O)N2C)cc1NS(C)(=O)=O` [Example 419, trans-N-(5-(3-(3-Chlorophenyl)-7′-fluoro-3′-methyl-2′-oxo-2′,3′-dihydrospiro[cyclobutane-1,1′-pyrrolo[2,3-c]quinolin]-8′-yl)-2-(2-(isopropylamino)ethoxy)pyridin-3-yl)methanesulfonamide] as the compound, how does the IC50 (DNA-PK; 20 μM ATP) read?
Answer: 1 to 100 nM

Question: What about the IC50 (ATM; [2]) of the same compound?
Answer: > 100 nM

Question: What does the source list for `COCCS(=O)(=O)Nc1cc(-c2ccc3ncc4c(c3c2)C2(CCC2)C(=O)N4C)cnc1OCCCN(C)C` [Example 266, N-(2-(3-(Dimethylamino)propoxy)-5-(3′-methyl-2′-oxo-2′,3′-dihydrospiro [cyclobutane-1,1′-pyrrolo[2,3-c]quinolin]-8′-yl)pyridin-3-yl)-2-methoxyethane-1-sulfonamide]?
Answer: IC50 (DNA-PK; ATP 20 μM): 1 to 100 nM; IC50 (ATM; [1]): 1 to 100 nM

Question: What does the source list for `CN1C(=O)C2(CCC2)c2c1cnc1ccc(-c3cnc(N4CC(N(C)C)C4)c(NS(=O)(=O)C4CC4)c3)cc21` [Example 320, N-(2-(3-(Dimethylamino)azetidin-1-yl)-5-(3′-methyl-2′-oxo-2′,3′-dihydrospiro[cyclobulane-1,1′-pyrrolo[2,3-c]quinolin]-8′-yl)pyridin-3-yl)cyclopropanesulfonamide]?
Answer: IC50 (DNA-PK; ATP 20 μM): 1 to 100 nM; IC50 (ATM; [1]): 1 to 100 nM

Question: Which IC50 (DNA-PK; 20 μM ATP) does the source give for `CC(C)NCCOc1ncc(-c2cc3c(cc2F)ncc2c3[C@]3(C[C@H](COc4ccccc4)C3)C(=O)N2C)cc1NS(C)(=O)=O` [Example 409, cis-N-(5-(7′-Fluoro-3′-methyl-2′-oxo-3-(phenoxymethyl)-2′,3′-dihydrospiro[cyclobutane-1,1′-pyrrolo[2,3-c]quinolin]-8′-yl)-2-(2-(isopropylamino)ethoxy)pyridin-3-yl)methanesulfonamide] here?
Answer: < 0.5 nM

Question: And the IC50 (ATM; [2])?
Answer: 1 to 100 nM

Question: With `COc1ccc(S(=O)(=O)Nc2cc(-c3ccc4ncc5c(c4c3)C3(CC3)C(=O)N5C)cnc2OCCCN2CCCCC2)cc1` [Example 119, 4-Methoxy-N-(5-(3′-methyl-2′-oxo-2′,3′-dihydrospiro[cyclopropane-1,1′-pyrrolo[2,3-c]quinolin]-8′-yl)-2-(3-(piperidin-1-yl)propoxy)pyridin-3-yl(benzenesulfonamide hydrochloride] as the compound, how does the IC50 (DNA-PK; ATP 20 μM) read?
Answer: < 0.5 nM

Question: And the IC50 (ATM; [1])?
Answer: 1 to 100 nM

Question: For `CN(C)CCCOc1ncc(-c2ccc3ncc4c(c3c2)C2(CCC2)C(=O)N4C)cc1NS(=O)(=O)c1ccc(C#N)nc1` [Example 147, 6-Cyano-N-(2-(3-(dimethylamino)propoxy)-5-(3′-methyl-2′-oxo-2′,3′-dihydrospiro[cyclobulane-1,1′-pyrrolo[2,3-c]quinolin]-8′-yl)pyridin-3-ylpyridine-3-sulfonamide hydrochloride], which IC50 (DNA-PK; ATP 20 μM) is on record?
Answer: 0.5 to 1 nM

Question: What about the IC50 (ATM; [1]) of the same compound?
Answer: 1 to 100 nM

Question: Which IC50 (DNA-PK; ATP 20 μM) does the source give for `COc1cc(-c2ccc3ncc4c(c3c2)C2(CC2)C(=O)N4C)cnc1OCCCN(C)C` [Example 54, 8′-(6-(3-(Dimethylamino)propoxy)-5-methoxypyridin-3-yl)-3′-methylspiro[cyclopropane-1,1′-pyrrolo[2,3-c]quinolin]-2′(3′-H)-one] here?
Answer: > 100 nM

Question: And the IC50 (ATM; [1])?
Answer: 0.5 to 1 nM

Question: `CC(C)NCCOc1ncc(-c2cc3c(cc2F)ncc2c3[C@]3(C[C@@H](c4ccccc4F)C3)C(=O)N2C)cc1NS(C)(=O)=O` [Example 427, trans-N-(5-(7′-Fluoro-3-(2-fluorophenyl)-3′-methyl-2′-oxo-2′,3′-dihydrospiro[cyclobutane-1,1′-pyrrolo[2,3-c]quinolin]-8′-yl)-2-(2-(isopropylamino)ethoxy)pyridin-3-yl)methanesulfonamide] was tested. Which IC50 (DNA-PK; 20 μM ATP) did it give?
Answer: 1 to 100 nM

Question: And the IC50 (ATM; [2])?
Answer: > 100 nM

Question: Which results are given for `CN(C)CCCOc1ncc(-c2ccc3ncc4c(c3c2)C2(CCC2)C(=O)N4C)cc1NS(=O)(=O)N1CCCC1` [Example 244, N-(2-(3-(Dimethylamino)propoxy)-5-(3′-methyl-2′-oxo-2′,3′-dihydrospiro [cyclobutane-1,1′-pyrrolo[2,3-c]quinolin]-8′-yl)pyridin-3-yl)pyrrolidine-1-sulfonamide]?
Answer: IC50 (DNA-PK; ATP 20 μM): 1 to 100 nM; IC50 (ATM; [1]): 1 to 100 nM

Question: What does the source list for `CNC1CN(c2ncc(-c3cc4c5c(cnc4cc3F)N(C)C(=O)C53CCC3)cc2NS(=O)(=O)N(C)C)C1` [Example 332, 8′-{5-[(Dimethylsulfamoyl)amino]-6-[3-(methylamino)azetidin-1-yl]pyridin-3-yl}-7′-fluoro-3′-methyl-2′,3′-dihydrospiro[cyclobutane-1,1′-pyrrolo[2,3-c]quinoline]-2′-one]?
Answer: IC50 (DNA-PK; ATP 20 μM): 1 to 100 nM; IC50 (ATM; [1]): 1 to 100 nM

Question: How did the IC50 (DNA-PK; 20 μM ATP) turn out when `CC(C)NCCOc1ncc(-c2cc3c(cc2F)ncc2c3[C@]3(C[C@@H](Nc4ccccc4)C3)C(=O)N2C)cc1NS(C)(=O)=O` [Example 460, trans-N-(5-(7′-Fluoro-3′-methyl-2′-oxo-3-(phenylamino)-2′,3′-dihydrospiro[cyclobutane-1,1′-pyrrolo[2,3-c]quinolin]-8′-yl)-2-(2-(isopropylamino)ethoxy)pyridin-3-yl)methanesulfonamide hydrochloride] was run?
Answer: 1 to 100 nM

Question: What about the IC50 (ATM; [2]) of the same compound?
Answer: 1 to 100 nM

Question: With `CC(C)NCCOc1ncc(-c2cc3c(cc2F)ncc2c3[C@]3(C[C@H](c4ccccc4F)C3)C(=O)N2C)cc1NS(C)(=O)=O` [Example 426, cis-N-(5-(7′-Fluoro-3-(2-fluorophenyl)-3′-methyl-2′-oxo-2′,3′-dihydrospiro[cyclobutane-1,1′-pyrrolo[2,3-c]quinolin]-8′-yl)-2-(2-(isopropylamino)ethoxy)pyridin-3-yl)methanesulfonamide] as the compound, how does the IC50 (DNA-PK; 20 μM ATP) read?
Answer: 1 to 100 nM

Question: And the IC50 (ATM; [2])?
Answer: 1 to 100 nM

Question: With `CC(C)NCCOc1ncc(-c2cc3c(cc2F)ncc2c3[C@]3(C[C@H](c4cccc(F)c4)C3)C(=O)N2C)cc1NS(C)(=O)=O` [Example 424, cis-N-(5-(7′-Fluoro-3-(3-fluorophenyl)-3′-methyl-2′-oxo-2′,3′-dihydrospiro[cyclobutane-1,1′-pyrrolo[2,3-c]quinolin]-8′-yl)-2-(2-(isopropylamino)ethoxy)pyridin-3-yl)methanesulfonamide] as the compound, how does the IC50 (DNA-PK; 20 μM ATP) read?
Answer: 1 to 100 nM

Question: What about the IC50 (ATM; [2]) of the same compound?
Answer: 1 to 100 nM

Question: For `Cc1ccc(S(=O)(=O)Nc2cc(-c3ccc4ncc5c(c4c3)C3(CCC3)C(=O)N5C)cnc2N2CCC(N3CCCCC3)CC2)cn1` [Example 198, N-(2-([1,4′-Bipiperidin]-1′-yl)-5-(3′-methyl-2′-oxo-2′,3′-dihydrospiro[cyclobutane-1,1′-pyrrolo[2,3-c]quinolin]-8′-yl)pyridin-3-yl)-6-methylpyridine-3-sulfonamide hydrochloride], which IC50 (DNA-PK; ATP 20 μM) is on record?
Answer: < 0.5 nM

Question: What about the IC50 (ATM; [1]) of the same compound?
Answer: 1 to 100 nM

Question: Which IC50 (DNA-PK; ATP 20 μM) does the source give for `CN(C)CCCOc1ncc(-c2ccc3ncc4c(c3c2)CC2(CCC2)C(=O)N4C)cc1NS(=O)(=O)c1ccccc1` [Example 73, N-(2-(3-(Dimethylamino)propoxy)-5-(4-methyl-3-oxo-3,4-dihydro-1H-spiro[benzo[f][1,7]naphthyridine-2,1′-cyclobutan]-9-yl)pyridin-3-yl)benzenesulfonamide] here?
Answer: 1 to 100 nM

Question: What about the IC50 (ATM; [1]) of the same compound?
Answer: 1 to 100 nM

Question: Which results are given for `CN(C)CCCCOc1ncc(-c2ccc3ncc4c(c3c2)C2(CC2)C(=O)N4C)cc1NS(=O)(=O)c1ccccc1` [Example 35, N-(2-(4-(Dimethylamino)butoxy)-5-(3′-methyl-2′-oxo-2′,3′-dihydrospiro [cyclopropane-1,1′-pyrrolo[2,3-c]quinolin]-8′-yl)pyridin-3-yl)benzenesulfonamide]?
Answer: IC50 (DNA-PK; ATP 20 μM): 0.5 to 1 nM; IC50 (ATM; [1]): 1 to 100 nM

Question: What does the source list for `CCS(=O)(=O)Nc1cc(-c2cc3c4c(cnc3cc2F)N(C)C(=O)C42CCC2)cnc1N1CC(NC)C1` [Example 334]?
Answer: IC50 (DNA-PK; ATP 20 μM): 0.5 to 1 nM; IC50 (ATM; [1]): 1 to 100 nM
